Measurements reported in patent publication US20100056516A1 (priority 2006, published 2010).

Legend:
[1] = target: HIV integrase (Human immunodeficiency virus type 1 group M subtype B, UniProt P04585); experiment: integrase strand transfer assay (STA); type: biochemical; conditions: integrase strand transfer; read-out: IC50 in the STA assay
[2] = system: HXB2 virus; experiment: microbe, parasite or virus in culture; type: cell-based, HIV; conditions: Human immunodeficiency virus 1, HXB2, HeLaP4-2, read-out: antiviral IC50 (SCIA-B)
Procedure, shortened: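 HXB2 virus used to infect HeLa P4-2 cells in a single-cycle format; inhibition of acute infection is measured.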

Structure (SMILES) | IC50 [1] [µM] | IC50 [2] [µM]
NCc1ccc(-c2cccc(Cc3cc(=O)n(O)c4ncccc34)c2)cc1 [Example 232, 4-{[4′-(aminomethyl)biphenyl-3-yl]methyl}-1-hydroxy-1,8-naphthyridin-2(1H)-one] | < 50 | < 100
Nc1cccc(-c2cccc(Cc3cc(=O)n(O)c4ncccc34)c2)c1 [Example 233, 4-[(3′-aminobiphenyl-3-yl)methyl]-1-hydroxy-1,8-naphthyridin-2(1H)-one] | < 50 | < 100
Nc1ccc(-c2cccc(Cc3cc(=O)n(O)c4ncccc34)c2)cc1 [Example 234, 4-[(4′-aminobiphenyl-3-yl)methyl]-1-hydroxy-1,8-naphthyridin-2(1H)-one] | < 50 | < 100
O=c1cc(-c2cccc(O)c2)c2cccnc2n1O [Example 237, 1-hydroxy-4-(3-hydroxyphenyl)-1,8-naphthyridin-2(1H)-one] | < 50 | < 100
NC1(c2cccc(-c3ccc(-c4cc(=O)n(O)c5ncccc45)cc3)c2)CC1 [Example 238, 4-[3′-(1-aminocyclopropyl)biphenyl-4-yl]-1-hydroxy-1,8-naphthyridin-2(1H)-one] | < 50 | < 100
Nc1ccc(Cc2ccc(-c3cc(=O)n(O)c4ncccc34)cc2)cc1 [Example 239, 4-[4-(4-aminobenzyl)phenyl]-1-hydroxy-1,8-naphthyridin-2(1H)-one] | < 50 | < 100
CCOC(=O)c1c(CCc2ccccc2)c2cccnc2n(O)c1=O [Example 240, ethyl 1-hydroxy-2-oxo-4-(2-phenylethyl)-1,2-dihydro-1,8-naphthyridine-3-carboxylate] | < 50 | < 100
CCOC(=O)c1c(-c2ccc(-c3ccc(CN)cc3)cc2)c2cccnc2n(O)c1=O [Example 243, Ethyl 4-[4′-(aminomethyl)biphenyl-4-yl]-1-hydroxy-2-oxo-1,2-dihydro-1,8-naphthyridine-3-carboxylate] | < 50 | < 100
O=c1cc(-c2cn[nH]c2)c2cccnc2n1O [Example 244, 1-Hydroxy-4-(pyrazol-4-yl)-1,8-naphthyridin-2-(1H)-one] | < 50 | < 100
O=c1cc(-c2cnc3[nH]ccc3c2)c2cccnc2n1O [Example 245, 1-hydroxy-4-(1H-pyrrolo[2,3-b]pyridin-5-yl)-1,8-naphthyridin-2(1H)-one bistrifluoroacetate] | < 50 | < 100
O=c1cc(C2=Cc3ccccc3CC2)c2cccnc2n1O [Example 246, 4-(3,4-dihydronaphthalen-2-yl)-1-hydroxy-1,8-naphthyridin-2(1H)-one] | < 50 | < 100
O=C(c1cc(=O)n(O)c2ncccc12)N1CCc2ccccc2C1 [Example 247, 4-(3,4-dihydroisoquinolin-2(1H)-ylcarbonyl)-1-hydroxy-1,8-naphthyridin-2(1H)-one] | < 50 | < 100
CCOC(=O)c1c(-c2cccc(-c3ccc(CN)cc3)c2)c2cc(-c3ccccc3OC)cnc2n(O)c1=O [Example 248, ethyl 4-[4′-(aminomethyl)biphenyl-3-yl]-1-hydroxy-6-(2-methoxyphenyl)-2-oxo-1,2-dihydro-1,8-naphthyridine-3-carboxylate] | < 50 | < 100
CCOC(=O)c1c(O)c2c(Cc3cccc(-c4cccc(CN)c4)c3)ccnc2n(O)c1=O [Example 249, ethyl 5-{[3′-(aminomethyl)biphenyl-3-yl]methyl}-1,4-dihydroxy-2-oxo-1,2-dihydro-1,8-naphthyridine-3-carboxylate] | < 50 | < 100
Nc1cnc2c(c1)c(O)c(-c1ccccc1)c(=O)n2O [Example 250, 6-amino-1,4-dihydroxy-3-phenyl-1,8-naphthyridin-2(1H)-one] | < 50 | < 100
Nc1cccc(-c2ccc3c(c2)CN(c2cc(=O)n(O)c4ncccc24)CC3)c1 [Example 251, 4-[7-(3-aminophenyl)-3,4-dihydroisoquinolin-2(1H)-yl]-1-hydroxy-1,8-naphthyridin-2(1H)-one] | < 50 | < 100
NCc1cccc(-c2ccc3c(c2)CN(c2cc(=O)n(O)c4ncccc24)CC3)c1 [Example 252, 4-[7-(3-aminomethylphenyl)-3,4-dihydroisoquinolin-2(1H)-yl]-1-hydroxy-1,8-naphthyridin-2(1H)-one] | < 50 | < 100
O=c1cc(N2CCc3ccc(-c4ccncc4)cc3C2)c2cccnc2n1O [Example 253, 1-hydroxy-4-(7-pyridin-4-yl-3,4-dihydroisoquinolin-2(1H)-yl)-1,8-naphthyridin-2(1H)-one] | < 50 | < 100
Nc1ccc(-c2ccc3c(c2)CN(c2cc(=O)n(O)c4ncccc24)CC3)cc1 [Example 254, 4-[7-(4-aminophenyl)-3,4-dihydroisoquinolin-2(1H)-yl]-1-hydroxy-1,8-naphthyridin-2(1H)-one] | < 50 | < 100
O=c1cc(N2Cc3ccc(-c4ccccc4)cc3C2)c2cccnc2n1O [Example 256, 1-hydroxy-4-(5-phenyl-1,3-dihydro-2H-isoindol-2-yl)-1,8-naphthyridin-2(1H)-one] | < 50 | < 100
CCOC(=O)c1c(N2CCc3ccc(-c4ccc(F)cc4)cc3C2)c2cccnc2n(O)c1=O [Example 258, ethyl 4-[7-(4-fluorophenyl)-3,4-dihydroisoquinolin-2(1H)-yl]-1-hydroxy-2-oxo-1,2-dihydro-1,8-naphthyridine-3-carboxylate] | > 50 | < 100
CCOC(=O)c1c(N2CCc3ccc(-c4cccc(F)c4)cc3C2)c2cccnc2n(O)c1=O [Example 259, ethyl 4-[7-(3-fluorophenyl)-3,4-dihydroisoquinolin-2(1H)-yl]-1-hydroxy-2-oxo-1,2-dihydro-1,8-naphthyridine-3-carboxylate] | > 50 | < 100
O=C(NCCc1ccccc1)c1ccc2c(c1)CN(c1cc(=O)n(O)c3ncccc13)CC2 [Example 260, 4-[7-(phenylethylaminocarbonyl)-3,4-dihydroisoquinolin-2(1H)-yl]-1-hydroxy-1,8-naphthyridin-2(1H)-one] | < 50 | < 100
O=C(NCc1ccccc1)c1ccc2c(c1)CCN(c1cc(=O)n(O)c3ncccc13)C2 [Example 261, 4-[6-(benzylaminocarbonyl)-3,4-dihydroisoquinolin-2(1H)-yl]-1-hydroxy-1,8-naphthyridin-2(1H)-one] | < 50 | < 100
CCOC(=O)c1c(-c2ccc(CCc3ccncc3)cc2)c2cccnc2n(O)c1=O [Example 262, Ethyl 4-[4-(2-pyridin-4-ylethyl)phenyl]-hydroxy-2-oxo-1,2-dihydro-1,8-naphthyridin-3-carboxylate] | < 50 | < 100
CCOC(=O)c1c(-c2cc(CCc3ccccc3F)cc(-c3ccc(CN)cc3)c2)c2cccnc2n(O)c1=O [Example 263, ethyl 4-[4′-aminomethyl-5-(2-fluorophenethyl)biphenyl-3-yl]1-hydroxy-2-oxo-1,2-dihydro-1,8-naphthyridine-3-carboxylate] | < 50 | < 100
